Source: the NIST ThermoML archive (doi:10.1016/j.jct.2007.03.011)
Values joined by “and” are separate entries in the source; they are usually repeats but may differ in a detail not shown here. Equal entries are not always repeated.

Conditions: Liquid, Transpiration method

N#CCCO [3-hydroxypropanenitrile]
Conditions	vapor or sublimation pressure
306.3 K	0.01564 kPa
311.3 K	0.02299 kPa
314.3 K	0.02755 kPa
317.3 K	0.03639 kPa
318.6 K	0.03759 kPa
321.4 K	0.04504 kPa
321.7 K	0.04955 kPa
323.3 K	0.05382 kPa
325.4 K	0.06297 kPa
326.3 K	0.06361 kPa
328.6 K	0.07507 kPa
331.4 K	0.08563 kPa and 0.09147 kPa
333.4 K	0.1054 kPa
336.3 K	0.1286 kPa
336.4 K	0.1232 kPa
338.5 K	0.1442 kPa
340.4 K	0.1598 kPa
341.5 K	0.1816 kPa
343.4 K	0.2025 kPa
346.6 K	0.2592 kPa
351.7 K	0.3404 kPa
356.8 K	0.4425 kPa
361.8 K	0.5765 kPa
